Patent publication US5646028A, “Alkaline serine protease streptomyces griseus var. alkaliphus having enhanced stability against urea or guanidine” (The Clorox Company, priority 1995, dated 1997)
“And” between values parts separate entries of the source, which are not always exact repeats. Identical values can stand only once. Like-named read-outs stand apart in the source and are kept apart here. *1 amine or outer side, *2 acyl side, *3 side chain or, on linkers, in order; H or OH if unused. Where a SMILES comes first, the peptide text is derived from it. The star is where a group is joined. pNA = O=[N+]([O-])c1ccc(N*)cc1; Suc = O=C(CCC(=O)[*:2])[*:1]

B1: SGPC: alkaline serine protease from Streptomyces griseus var. alkaliphilus No. 33, apparent molecular weight about 19,000 daltons (protein, UniProt P52320 203-457, looked up)
Streptogrisin-C: ADIRGGDAYYMNGSGRCSVGFSVTRGTQNGFATAGHCGRVGTTTNGVNQQAQGTFQGSTFPGRDIAWVATNANWTPRPLVNGYGRGDVTVAGSTASVVGASVCRSGSTTGWHCGTIQQLNTSVTYPEGTISGVTRTSVCAEPGDSGGSYISGSQAQGVTSGGSGNCSSGGTTYFQPINPLLQAYGLTLVTSGGGTPTDPPTTPPTDSPGGTWAVGTAYAAGATVTYGGATYRCLQAHTAQPGWTPADVPALWQRV

Experiments:
SGPC [1] = experiment: Substrate specificity of SGPC with tetrapeptide substrates sAAPXpNA; type: biochemical, Streptomyces griseus; conditions: pH 8.0, 10% DMSO, 24° C.
Description: The enzyme was assayed with a series of tetrapeptide substrates which had the form succinyl-Ala-Ala-Pro-X-para-nitroanilide (sAAPXpNA) (SEQ ID NOS. 3-20), where X is the P1 amino acid (the residue found on the N-terminal side of the bond which is cleaved). Kinetics constants kcat and Km were determined by assaying an appropriate dilution of SGPC with eight different concentrations of each substrate. Each substrate was dissolved in 100% DMSO to a concentration of 100 mM with the exception of sAAPQpNA (SEQ ID NO. 13) which was soluble only to a concentration of 15 mM. Five ul of an appropriate dilution of SGPC was placed in the wells of a microtiter dish. The reaction was initiated by adding 95 ul of the reaction mixture which was comprised of 50 ul of sodium bicine, pH 8.0, 35 ul of water, and 10 ul of the appropriate concentration of substrate in DMSO. The final concentration of DMSO was 10% in all of the reactions. All substrate concentrations were done in triplicate and rates were determined at 24° C. using a microtiter plate reader.

SGPC [2] = type: biochemical, Streptomyces griseus; conditions: for % remaining activity compared to a noninhibited control: pH 8
[3] = target: succinyl-Ala-Ala-Pro-Phe-para-nitroanilide
[4] = for % activity compared to the non-treated control: 24° C., pH 5.0
pH profile of SGPC = type: biochemical; conditions: 2 mM SAAPFpNA, 10% DMSO
[5] = Wash performance test, beaker-scale grass stain removal from cotton swatches

Molecule | Km (SGPC [1]) | kcat (SGPC [1]) | kcat /Km (SGPC [1]) | also measured
C[C@H](NC(=O)CCC(=O)O)C(=O)N[C@@H](C)C(=O)N1CCC[C@H]1C(=O)N[C@@H](CS)C(=O)Nc1ccc([N+](=O)[O-])cc1 [sAAPCpNA] (Suc-AAPC-pNA) | 4.26 mM | 61.3 S^-1 | 14,380 M^-1 S^-1 | 
C[C@H](NC(=O)CCC(=O)O)C(=O)N[C@@H](C)C(=O)N1CCC[C@H]1C(=O)N[C@@H](CCCCN)C(=O)Nc1ccc([N+](=O)[O-])cc1 [sAAPKpNA] (Suc-AAPK-pNA) | 4.22 mM | 10.9 S^-1 | 2,577 M^-1 S^-1 | 
CC(C)[C@H](NC(=O)[C@@H]1CCCN1C(=O)[C@H](C)NC(=O)[C@H](C)NC(=O)CCC(=O)O)C(=O)Nc1ccc([N+](=O)[O-])cc1 [sAAPVpNA] (Suc-AAPV-pNA) | 1.08 mM | 0.53 S^-1 | 1,422 M^-1 S^-1 | 
C[C@H](NC(=O)CCC(=O)O)C(=O)N[C@@H](C)C(=O)N1CCC[C@H]1C(=O)N[C@@H](CO)C(=O)Nc1ccc([N+](=O)[O-])cc1 [sAAPSpNA] (Suc-AAPS-pNA) | 3.73 mM | 7.05 S^-1 | 1,893 M^-1 S^-1 | 
O=C(O)CI [IOAc, iodoacetic acid] |  |  |  | inhibition of SGPC (in words) (SGPC [2]): no significant inhibition; % remaining activity compared to a noninhibited control (SGPC [2]): 104% and 103%
C[C@H](NC(=O)CCC(=O)O)C(=O)N[C@@H](C)C(=O)N1CCC[C@H]1C(=O)N[C@@H](C)C(=O)Nc1ccc([N+](=O)[O-])cc1 [sAAPApNA] (Suc-AAPA-pNA) | 5.29 mM | 36.1 S^-1 | 6,826 M^-1 S^-1 | 
C[C@H](NC(=O)CCC(=O)O)C(=O)N[C@@H](C)C(=O)N1CCC[C@H]1C(=O)N[C@@H](CC(=O)O)C(=O)Nc1ccc([N+](=O)[O-])cc1 [sAAPDpNA] (Suc-AAPD-pNA) | 19.6 mM | 6.89 S^-1 | 351 M^-1 S^-1 | 
C[C@H](NC(=O)CCC(=O)O)C(=O)N[C@@H](C)C(=O)N1CCC[C@H]1C(=O)N[C@@H](Cc1ccc(O)cc1)C(=O)Nc1ccc([N+](=O)[O-])cc1 [sAAPYpNA] (Suc-AAPY-pNA) | 0.49 mM | 27.7 S^-1 | 61,770 M^-1 S^-1 | 
C[C@H](NC(=O)CCC(=O)O)C(=O)N[C@@H](C)C(=O)N1CCC[C@H]1C(=O)N[C@@H](Cc1cnc[nH]1)C(=O)Nc1ccc([N+](=O)[O-])cc1 [sAAPHpNA] (Suc-AAPH-pNA) | 1.09 mM | 24.0 S^-1 | 21,960 M^-1 S^-1 | 
C[C@H](NC(=O)CCC(=O)O)C(=O)N[C@@H](C)C(=O)N1CCC[C@H]1C(=O)NCC(=O)Nc1ccc([N+](=O)[O-])cc1 [sAAPGpNA] (Suc-AAPG-pNA) |  |  |  | rates seen with the substrate (SGPC [1]): too samll to be reliable
C[C@H](NC(=O)CCC(=O)O)C(=O)N[C@@H](C)C(=O)N1CCC[C@H]1C(=O)N[C@H](C(=O)Nc1ccc([N+](=O)[O-])cc1)[C@@H](C)O [sAAPTpNA] (Suc-AAPT-pNA) | 4.34 mM | 7.69 S^-1 | 1,769 M^-1 S^-1 | 
O=S(=O)(F)Cc1ccccc1 [PMSF, phenylmethylsulfonyl fluoride] |  |  |  | inhibition of SGPC (in words) (SGPC [2]): inhibit SGPC; % remaining activity compared to a noninhibited control (SGPC [2]): 0.07% and 0.06%
S. griseus protease C (enzyme) |  |  |  | kcat /Km [3]: 138000 M^-1 S^-1; kcat /Km (sAAPHpNA): 22000 M^-1 S^-1; kcat /Km (sAAPYpNA): 61800 M^-1 S^-1; kcat /Km (sAAPDpNA): 351 M^-1 S^-1; kcat /Km (sAAPKpNA): 2580 M^-1 S^-1; kcat /Km (sAAPNpNA): 12200 M^-1 S^-1; kcat /Km (sAAPSpNA): 1890 M^-1 S^-1; kcat /Km (sAAPTpNA): 1770 M^-1 S^-1; kcat /Km (sAAPApNA): 6830 M^-1 S^-1; kcat /Km (sAAPLpNA): 27000 M^-1 S^-1; kcat /Km (sAAPMpNA): 100000 M^-1 S^-1; kcat /Km (sAAPVpNA): 1420 M^-1 S^-1; kcat /Km (sAAPCpNA): 14400 M^-1 S^-1; kcat /Km (sAAPRpNA): 4000 M^-1 S^-1; kcat /Km (sAAPQpNA): 2550 M^-1 S^-1
C[C@H](NC(=O)CCC(=O)O)C(=O)N[C@@H](C)C(=O)N1CCC[C@H]1C(=O)N[C@@H](Cc1ccccc1)C(=O)Nc1ccc([N+](=O)[O-])cc1 [sAAPFpNA, succinyl-Ala-Ala-Pro-Phe-para-nitroanilide] (Suc-AAPF-pNA) | 0.29 mM | 39.7 S^-1 | 137,600 M^-1 S^-1 | 
C[C@H](NC(=O)CCC(=O)O)C(=O)N[C@@H](C)C(=O)N1CCC[C@H]1C(=O)N[C@@H](CC(N)=O)C(=O)Nc1ccc([N+](=O)[O-])cc1 [sAAPNpNA] (Suc-AAPN-pNA) | 2.91 mM | 35.3 S^-1 | 12,160 M^-1 S^-1 | 
C[C@H](NC(=O)CCC(=O)O)C(=O)N[C@@H](C)C(=O)N1CCC[C@H]1C(=O)N[C@@H](CCC(N)=O)C(=O)Nc1ccc([N+](=O)[O-])cc1 [sAAPQpNA] (Suc-AAPQ-pNA) | 14.3 mM | 36.3 S^-1 | 2,547 M^-1 S^-1 | 
O=C(O)CN(CCN(CC(=O)O)CC(=O)O)CC(=O)O [EDTA, ethylenediaminetetraacetic acid] |  |  |  | inhibition of SGPC (in words) (SGPC [2]): no significant inhibition; % remaining activity compared to a noninhibited control (SGPC [2]): 97% and 94%
C[C@H](NC(=O)CCC(=O)O)C(=O)N[C@@H](C)C(=O)N1CCC[C@H]1C(=O)N[C@@H](CCCNC(=N)N)C(=O)Nc1ccc([N+](=O)[O-])cc1 [sAAPRpNA] (Suc-AAPR-pNA) | 4.17 mM | 16.7 S^-1 | 4,001 M^-1 S^-1 | 
C[C@H](NC(=O)CCC(=O)O)C(=O)N[C@@H](C)C(=O)N1CCC[C@H]1C(=O)N[C@@H](CCC(=O)O)C(=O)Nc1ccc([N+](=O)[O-])cc1 [sAAPEpNA] (Suc-AAPE-pNA) |  |  |  | rates seen with the substrate (SGPC [1]): too samll to be reliable
CC[C@H](C)[C@H](NC(=O)[C@@H]1CCCN1C(=O)[C@H](C)NC(=O)[C@H](C)NC(=O)CCC(=O)O)C(=O)Nc1ccc([N+](=O)[O-])cc1 [sAAPIpNA] (Suc-AAPI-pNA) |  |  |  | rates seen with the substrate (SGPC [1]): too samll to be reliable
CSCC[C@H](NC(=O)[C@@H]1CCCN1C(=O)[C@H](C)NC(=O)[C@H](C)NC(=O)CCC(=O)O)C(=O)Nc1ccc([N+](=O)[O-])cc1 [sAAPMpNA] (Suc-AAPM-pNA) | 0.39 mM | 39.3 S^-1 | 100,400 M^-1 S^-1 | 
CC(C)C[C@H](NC(=O)[C@@H]1CCCN1C(=O)[C@H](C)NC(=O)[C@H](C)NC(=O)CCC(=O)O)C(=O)Nc1ccc([N+](=O)[O-])cc1 [sAAPLpNA] (Suc-AAPL-pNA) | 0.92 mM | 24.8 S^-1 | 27,030 M^-1 S^-1 | 
B1 |  |  |  | % activity compared to the non-treated control ([4]; 2 M Guanidine, 1 hour): 125.7%; % activity compared to the non-treated control ([4]; 2 M Guanidine, 24 hours): 105.7%; % activity compared to the non-treated control ([4]; 2 M Urea, 1 hour): 103.5%; % activity compared to the non-treated control ([4]; 2 M Urea, 24 hours): 98.1%; effect on the activity (in words) ([4]; 2 M to 6 M urea, 24 hr vs 1 hr): very little effect; % activity compared to the non-treated control ([4]; 4 M Guanidine, 1 hour): 130.4%; % activity compared to the non-treated control ([4]; 4 M Guanidine, 24 hours): 55.8%; % activity compared to the non-treated control ([4]; 4 M Urea, 1 hour): 118.2%; % activity compared to the non-treated control ([4]; 4 M Urea, 24 hours): 112.4%; % activity compared to the non-treated control ([4]; 6 M Guanidine, 1 hour): 98.0%; % activity compared to the non-treated control ([4]; 6 M Guanidine, 24 hours): 10.1%; % activity compared to the non-treated control ([4]; 6 M Urea, 1 hour): 116.4%; % activity compared to the non-treated control ([4]; 6 M Urea, 24 hours): 112.9%; effect on the activity (in words) ([4]; Guanidine 4 M to 6 M, 24 hr): substantial losses of activity; effect on the activity (in words) ([4]; Guanidine at 2 M, 24 hr): slight effect; pH optimum (in words) (pH profile of SGPC): highly alkaline pH optimum; effectiveness against grass stain compared with Savinase ([5]; equal weight of protease in the wash liquor): more effective than Savinase; (delta) % SRE (percent stain removal over a control containing no enzyme) ([5]; grass stain, cotton swatches, 37° C., powdered detergent 104 g/69 liters, pH 10.5, 0.25 mg protease/500 ml wash liquor): 59.6%
